In patent US20100022559A1, “BISOXIMES AS FUNGICIDES” (BAYER CROPSCIENCE AG, priority 2006, published 2010):

Assay: logP determination by HPLC on a reversed-phase column (C 18), EEC Directive 79/831 Annex V.A8
Format: physicochemical
Experimental: The stated logP values were determined in accordance with EEC Directive 79/831 Annex V.A8 by HPLC (high performance liquid chromatography) on a reversed-phase column (C 18). Temperature: 43° C.

[1] = method marker [b], isomer A / isomer B / isomer mixture as noted in the cell
[2] = method marker [a] (footnote not shown), isomer A / isomer B / isomer mixture as noted in the cell
[3] = [b] LC-MS, acidic range, pH 2.7, 0.1% aqueous formic acid and acetonitrile

CC(=NOCCON=C(C)c1cccnc1)c1cccnc1 [Compound 32]
logP [1]: 1.32^[b]

C=C(CON=C(C)c1nccc(OCC)n1)CON=C(C)c1nccc(OCC)n1 [compound 252]
logP [1]: 3.42^[b]

CC(=NOCC(C)(C)CON=C(C)c1nccn1C)c1nccn1C [compound 576]
logP (method marked [a] in Table 1): 1.07^[a]

C=C(CON=C(C)c1ccc(Cl)s1)CON=C(C)c1ccc(Cl)s1 [compound 20]
logP [1]: 5.88^[b]

CC(=NOCC(C)CON=C(C)c1cccc(-c2ccccc2)n1)c1cccc(-c2ccccc2)n1 (stereo not drawn) [compound 563]
logP (method marked [b] in Table 1): 7.36^[b] | logP (method marked [c] in Table 1): 7.36^[c]

C=C(CON=C(C)c1ccc2c(c1)CC(C)O2)CON=C(C)c1cccc(C)n1 (stereo not drawn) [compound 468]
logP (value marked [b]): 4.85^[b]

C=C(CON=C(C)c1cccc(C)n1)CON=C(C)c1nc2ccccc2s1 [compound 218]
logP [1]: 4.79^[b]

CC(=NOCC(C)(C)CON=C(C)c1cc(Cl)cc(C)n1)c1cc(Cl)cc(C)n1 [compound 804]
logP (value marked [a]): 7.36^[a]

CC(=NOCC(C)CON=C(C)c1ccc(C)c(C)n1)c1cc(C)cc(C)n1 (racemic) [Compound 694]
logP (method marked [b] in Table 1): 2.63^[b] | logP (method marked [c] in Table 1): 6.17^[c]

Cc1cccc(C(=NOCC(C)(C)CON=C(c2cccc(C)n2)C2CC2)C2CC2)n1 (mixture of isomers) [Compound 281]
logP (value marked [a]): 4.04^[a]

C=Cc1cccc(C(C)=NOCC(C)CON=C(C)c2cccc(C=C)n2)n1 (stereo not drawn) [compound 685]
logP (method marked [b] in Table 1): 6.6^[b]

C=C(CON=C(C)c1cccc(OC)n1)CON=C(C)c1cccc(OC)n1 [compound 145]
logP [1]: 5.89^[b]

C=C(CON=C(C)c1cccc(C)n1)CON=C(N)c1cc(C(F)(F)F)cc(C)n1 [compound 210]
logP [1]: 4.37^[b]

Cc1cccc(C(=NOCC2(CON=C(c3cccc(C)n3)C3CC3)CC(c3ccc(Cl)cc3)=NO2)C2CC2)n1 (stereo not drawn) [compound 649]
logP (method marked [a] in Table 1): 4.53^[a]

CC(=NOCCCCCCON=C(Cc1ccccc1)c1ncccc1C)c1cccc(C)n1 (single isomer, unassigned) [compound 531]
logP (value marked [b]): 4.97^b] (isomer )A

CCC(=NOCC(C)CON=C(CC)c1cccc(C)n1)c1cccc(C)n1 (stereo not drawn) [Compound 116]
logP [2]: 5.40^[a]

CCC1=NOC(CON=C(C)c2ccc(C)c(C)n2)(CON=C(C)c2ccc(C)c(C)n2)C1 (stereo not drawn) [compound 628]
logP (method marked [b] in Table 1): 2.51^[b]

CC(=NOCC(C)CON=C(C)c1cccc(C)n1)c1ccncc1 (stereo not drawn) [compound 493]
logP (value marked [b]): 2.04^[b]

CCC(CC)(CON=C(C)c1nc(C)ccc1C)CON=C(C)c1nc(C)ccc1C [compound 882]
logP (value marked [b]): 3.90^[b] | logP (value marked [c]): 5.41^[c]

CC(=NOCCON=C(C)c1ccncc1)c1ccncc1 [compound 28]
logP [1]: 0.66^[b]

Cc1cccc(C(=NOCC2(CON=C(c3cccc(C)n3)C3CC3)CC(CC(C)C)=NO2)C2CC2)n1 (stereo not drawn) [compound 653]
logP (method marked [a] in Table 1): 3.99^[a]

CC#Cc1cccc(C(C)=NOCC(C)CON=C(C)c2cccc(C#CC)n2)n1 (stereo not drawn) [Compound 686]
logP (method marked [b] in Table 1): 5.65^[b]

C=C(CON=C(C)c1cccc(C)n1)CON=C(C)c1ncccc1Cl (single isomer, unassigned) [compound 140]
logP [1]: 4.40^[b] (isomer A)

CC(=NOCC(C)(C)CON=C(C)c1cccc(CC(C)C)n1)c1cccc(C)n1 [Compound 367]
logP (value marked [b]): 7.07^[b]

C=C(CON=C(C)c1cccc(C)n1)CON=C(c1cccc(C)n1)C1CC1 (single isomer, unassigned) [compound 536]
logP (method marked [b] in Table 1): 3.19^[b] (isomer A)

CC(=NOCC1(CON=C(C)c2cccc(NCC3CC3)n2)CC1)c1cccc(NCC2CC2)n1 [compound 849]
logP (value marked [b]): 1.93^[b]

C=C(CON=C(Cl)c1cccc(C)n1)CON=C(Cl)c1ccc(C)c(C)n1 [compound 822]
logP (value marked [a]): 4.12^[a]

CCC(CC)(CON=C(C)c1ccc(C)c(C)n1)CON=C(C)c1ccc(C)c(C)n1 [Compound 810]
logP (value marked [b]): 6.50^[b] | logP (value marked [c]): 7.36^[c]

Cc1ccc(C(=NOCC(C)CON=C(c2ccc(C)c(C)n2)C(C)C)C(C)C)nc1C (mixture of isomers) [compound 299]
logP (value marked [a]): 4.82^[a]

COc1cc(C)nc(C(C)=NOCC2(CON=C(C)c3cc(OC)cc(C)n3)CC2)c1 [Compound 816]
logP (value marked [a]): 1.34^[a] | logP (value marked [c]): 4.94^[c]

CCCc1cccc(C(C)=NOCC(C)CON=C(C)c2cccc(CCC)n2)n1 (stereo not drawn) [Compound 175]
logP [2]: 7.36^[a]

C=C(CON=C(C)c1cccc(C(F)(F)F)c1)CON=C(C)c1cccc(C)n1 [compound 399]
logP (value marked [b]): 5.36^[b]

C/C(=N\OCC(C)(C)CON)c1cccc(C)n1 [XII-4]
logP [3]: 1.11^[b]

Cc1nc(/C(N)=N/OCc2cccc(CO/N=C(\N)c3nc(C)c4c(n3)CCCC4)c2)nc2c1CCCC2 [compound 712]
logP (method marked [b] in Table 1): 3.09^[b]

CC(=NOCCCCON=C(C)c1cccc(C)n1)c1cc(C)ccn1 [Compound 373]
logP (value marked [b]): 2.66^[b]

CC(=NOCCCCCCON=C(C)c1cccc(CC(C)C)n1)c1cccc(C)n1 [compound 342]
logP (value marked [b]): 7.36^[b]

CC(=NOCCCON=C(C)c1cc(-c2ccccc2)ccn1)c1cc(-c2ccccc2)ccn1 [compound 132]
logP [2]: 5.74^[a]

C=C(CON=C(C)c1cccc(C)n1)CON=C(C)c1ccc(Cl)s1 (single isomer, unassigned) [compound 195]
logP [1]: 4.82^[b] (isomer A)

CC(=NOCCCCON=C(C)c1cccc(C)n1)c1ccc2c(c1)CC(C)O2 (stereo not drawn) [compound 441]
logP (value marked [b]): 4.91^[b]

CC(=NOCCCON=C(C)c1nc(C)cs1)c1cccc(C)n1 (mixture of isomers) [Compound 16]
logP [2]: 3.35^[a] | logP (method marker [c] (footnote not shown)): 4.47^[c]

C=C(CON=C(Cl)c1cccc(C)n1)CON=C(Cl)c1cccc(C)n1 [compound 696]
logP (method marked [b] in Table 1): 4.01^[b]

CCC(=NOCC(C)(C)CON=C(CC)c1ccc(C)c(C)n1)c1ccc(C)c(C)n1 [Compound 280]
logP (value marked [a]): 5.58^[a]

CC(=NOCC(C)CON=C(C)c1cc(C2CC2)cc(C)n1)c1cc(Cl)cc(C)n1 (stereo not drawn) [compound 846]
logP (value marked [a]): 5.23^[a] | logP (value marked [c]): 7.36^[c]

C=C(CON=C(C)c1cccc(C)n1)CON=C(C)c1ncc(C(F)(F)F)cc1Cl (single isomer, unassigned) [compound 157]
logP [1]: 4.42^[b] (isomer A)

C=CCCC(=NOCC(C)CON=C(C)c1cccc(C)n1)c1ncccc1C (stereo not drawn) [compound 424]
logP (value marked [b]): 4.10^[b]

CC(=NOCC(C)(C)CON=C(C)c1ccc(C)c(C)n1)c1cccc(C)n1 [Compound 799]
logP (value marked [a]): 4.96^[a] | logP (value marked [b]): 4.96^[b] | logP (value marked [c]): 6.34^[c]

CC(=NOCC(C)CON=C(C)c1nccc(C)n1)c1cccc(C)n1 (stereo not drawn) [compound 506]
logP (value marked [b]): 2.59^[b]

Cc1cccnc1C(Cc1ccccc1)=NOCCCON=C(Cc1ccccc1)c1ncccc1C (single isomer, unassigned) [compound 96]
logP [2]: 5.54^[a] (isomer B)

CCC(=NOCC1(CON=C(CC)c2cc(C)cc(C)n2)CC1)c1cc(C)cc(C)n1 (mixture of isomers) [Compound 570]
logP (method marked [a] in Table 1): 3.22^[a]

CC(=NOCC(CON=C(C)c1cc(C)cc(C)n1)C(C)(C)C)c1cc(C)cc(C)n1 (stereo not drawn) [Compound 559]
logP (method marked [b] in Table 1): 3.60^[b] | logP (method marked [c] in Table 1): 7.36^[c]

CC(=NOCC(C)(C)CON=C(C)c1cccc(C2CC2)n1)c1cccc(C2CC2)n1 [compound 814]
logP (value marked [a]): 7.36^[a]

CC(=NOCC(C)(C)CON=C(C)c1cccnc1C)c1cccc(C)n1 [compound 488]
logP (value marked [b]): 2.20^[b]

CC(=NOCC(C)(C)CON=C(C)c1cccc(C)n1)c1ccc2c(c1)OCO2 [compound 412]
logP (value marked [b]): 5.08^[b]

CCOC(=O)C(C)(CON=C(C)c1nc(C)ccc1C)CON=C(C)c1nc(C)ccc1C (stereo not drawn) [compound 884]
logP (value marked [b]): 2.47^[b] | logP (value marked [c]): 3.84^[c]

CC(=NOCC1(CON=C(C)c2cccc(C)n2)CC(C(C)C)=NO1)c1cccc(C)n1 (stereo not drawn) [compound 597]
logP (method marked [b] in Table 1): 3.28^[b]

CC(=NOCCON=C(C)c1nc(C)c(C)s1)c1nc(C)c(C)s1 [compound 50]
logP [1]: 4.35^[b]

C=C(CON=C(C)c1cccc(C)n1)CON=C(C)c1cccc(Cc2ccccc2)n1 [Compound 350]
logP (value marked [b]): 5.71^[b]

CC(=NOCCCCON=C(C)c1ccc(Cl)s1)c1cccc(C)n1 [compound 446]
logP (value marked [b]): 4.97^[b]

CC(=NOCC(C)CON=C(C)c1cccc(C)[n+]1[O-])c1cccc(C)[n+]1[O-] (stereo not drawn) [compound 314]
logP (value marked [b]): 1.69^[b]

CC(=NOC1CCC(ON=C(C)c2cc(C)cc(C)n2)C1)c1cc(C)cc(C)n1 (mixture of isomers) [compound 796]
logP (value marked [a]): 2.55^[a]

CC(=NOCC(C)CON=C(C)c1cccc([Si](C)(C)C)n1)c1ccccn1 (stereo not drawn) [Compound 826]
logP (value marked [b]): 6.72^[b] | logP (value marked [c]): 7.29^[c]

C=C(CON=Cc1cccc(C)n1)CON=C(C)c1cccc(C)n1 [compound 663]
logP (method marked [b] in Table 1): 2.54^[b]

CC(=NOCCCON=C(C)c1cccc(Cc2ccccc2)n1)c1cccc(Cc2ccccc2)n1 [Compound 131]
logP [2]: 6.95^[a]

C=C(CON=C(c1cccc(C)n1)C(C)C)CON=C(c1cccc(C)n1)C(C)C (single isomer, unassigned) [compound 275]
logP (value marked [a]): 4.90^[a] (isomer A)

CC(=NOCC(C)CON=C(C)c1ccc(C)c(C)n1)c1ccc(C)c(C)n1 (stereo not drawn) [Compound 118]
logP [2]: 2.99^[a]

COCc1nc(/C(N)=N/OCO/N=C(\N)c2nc(COC)c(C)c(COC)n2)nc(COC)c1C [compound 40]
logP [1]: 1.35^[b]

CC(=NOCC(C)CON=C(C)c1ccnc(C)n1)c1cccc(C)n1 (stereo not drawn) [compound 430]
logP (value marked [b]): 3.56^[b]

CC(=NOCC(CON=C(C)c1cccc(C)n1)Cc1ccccc1)c1cccc(C)n1 (stereo not drawn) [Compound 583]
logP (method marked [b] in Table 1): 5.37^b] | logP (method marked [c] in Table 1): 6.34^[c]

C/C(=N\OCC(C)CON)c1ccc(C)c(C)n1 (racemic) [XII-7]
logP ([a] acidic range, pH 2.3, 0.1% aqueous phosphoric acid and acetonitrile): 0.37^[a] | logP [3]: 0.37^[b] | logP ([c] LC-MS, neutral range, pH 7.8, 0.001 molar aqueous ammonium bicarbonate solution and acetonitrile): 2.49^[c]
